Entries after “also recorded” stand apart in the source; their conditions may differ. One block for each molecule: values may come before it.
Assays:
[1] = target: T1, sweet taste receptors T1R2/T1R3 (Homo sapiens, UniProt Q7RTX0+Q8TE23); assay: Taste receptor internalization assay (Ring Assay), sweet; format: cell-based; conditions: for EC50 value, sweet receptor dose response: combined with the stevia blend 4, Example 15; for slope of the dose response curve: with the stevia 4 blend, individual compound vs the combination of compounds 1 and 10, FIGS. 51, 52, 55
T1 construct: receptor internalization assay (“Ring Assay”) on an H716 cell line; endogenous in cells; host or cells: H716 cell line
T1 sequence (Q8TE23 20-839): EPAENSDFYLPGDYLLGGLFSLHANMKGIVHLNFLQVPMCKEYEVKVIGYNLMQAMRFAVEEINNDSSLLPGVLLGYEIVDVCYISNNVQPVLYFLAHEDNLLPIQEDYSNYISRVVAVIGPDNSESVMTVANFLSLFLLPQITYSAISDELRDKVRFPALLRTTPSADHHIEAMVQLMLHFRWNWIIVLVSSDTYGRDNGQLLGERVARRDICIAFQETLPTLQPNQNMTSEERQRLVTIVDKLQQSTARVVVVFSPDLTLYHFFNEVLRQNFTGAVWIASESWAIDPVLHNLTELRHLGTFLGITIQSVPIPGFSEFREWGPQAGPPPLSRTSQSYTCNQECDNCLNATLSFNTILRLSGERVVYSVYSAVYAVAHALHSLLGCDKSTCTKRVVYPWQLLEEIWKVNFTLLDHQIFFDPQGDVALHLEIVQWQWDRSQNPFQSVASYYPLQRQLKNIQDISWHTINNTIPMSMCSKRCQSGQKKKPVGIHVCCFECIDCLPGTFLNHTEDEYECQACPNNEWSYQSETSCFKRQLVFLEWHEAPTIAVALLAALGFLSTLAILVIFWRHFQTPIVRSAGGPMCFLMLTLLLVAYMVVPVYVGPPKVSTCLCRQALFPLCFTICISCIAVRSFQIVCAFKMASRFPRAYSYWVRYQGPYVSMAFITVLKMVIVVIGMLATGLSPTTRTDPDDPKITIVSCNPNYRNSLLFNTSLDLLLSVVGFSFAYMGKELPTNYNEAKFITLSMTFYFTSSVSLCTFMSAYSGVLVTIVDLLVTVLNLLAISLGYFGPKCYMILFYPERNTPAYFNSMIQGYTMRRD
T1 sequence (Q7RTX0 21-852): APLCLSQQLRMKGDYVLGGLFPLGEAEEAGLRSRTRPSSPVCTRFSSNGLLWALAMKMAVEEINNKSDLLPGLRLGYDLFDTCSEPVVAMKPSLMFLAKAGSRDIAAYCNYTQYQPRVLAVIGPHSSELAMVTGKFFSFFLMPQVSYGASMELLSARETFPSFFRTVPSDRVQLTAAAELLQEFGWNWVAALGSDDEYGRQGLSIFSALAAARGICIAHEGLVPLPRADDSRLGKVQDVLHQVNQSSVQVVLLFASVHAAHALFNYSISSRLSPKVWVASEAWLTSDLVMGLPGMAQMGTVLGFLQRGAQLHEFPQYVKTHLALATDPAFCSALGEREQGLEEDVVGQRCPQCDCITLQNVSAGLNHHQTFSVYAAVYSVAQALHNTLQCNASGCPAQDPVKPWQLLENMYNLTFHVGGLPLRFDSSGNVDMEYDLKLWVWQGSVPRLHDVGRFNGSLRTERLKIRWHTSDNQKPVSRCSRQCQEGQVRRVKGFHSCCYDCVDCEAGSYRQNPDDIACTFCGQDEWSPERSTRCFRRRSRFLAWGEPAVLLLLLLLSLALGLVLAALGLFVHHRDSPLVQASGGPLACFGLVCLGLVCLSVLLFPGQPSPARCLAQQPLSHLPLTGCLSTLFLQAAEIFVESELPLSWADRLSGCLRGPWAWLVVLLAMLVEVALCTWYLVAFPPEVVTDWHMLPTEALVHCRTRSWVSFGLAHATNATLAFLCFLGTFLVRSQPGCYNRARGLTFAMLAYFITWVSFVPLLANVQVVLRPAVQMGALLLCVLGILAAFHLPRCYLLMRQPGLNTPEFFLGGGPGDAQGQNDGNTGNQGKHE
Experimental: (§1) The control samples and samples I-X were tested for their ability to activate sweet taste receptors T1R2/T1R3, GLUT4, and Glucagon and bitter taste receptors T2R using a taste receptor internalization assay. Receptor activation and internalization was measured using images acquired by an IMAGEXPRESS Micro automated epifluorescence microscope (Molecular Devices Corporation). The images were analyzed with METAXPRESS 5.1 Workstation software, utilizing the Multiwaves Translocation Scoring analysis algorithm for nuclear and cytoplasmic segmentation. Curve fitting and parameter estimation were then analyzed with TIBCO SPOTFIRE.
(§2) Taste Receptor Internalization General Procedure:
The two control samples and Samples I-X were each serially diluted eight times at a ratio of […] in water (1 part sample to 2 parts water) and dose response was determined by conducting a receptor internalization assay (“Ring Assay”) on an H716 cell line with an HCI platform using the methods disclosed in PCT Patent Application Publication No. WO 2014/183041. Receptor internalization was measured at 5 and 15 minutes. EC50 values and Maximum-Minimum (“Max-Min”) values were calculated using SPOTFIRE software. Sweet, aftertaste, glucagon, and bitterness scoring were calculated using analysis of variance (ANOVA). A median value was then calculated by dividing the Max-Min value by the EC50 value for all time points. The median values, which represent receptor activity, were then plotted on radar graphs, as shown in FIGS. 9A-9B, 10A-10B, 11A-11B, 12A-12B, 13, 14A-14B, 15A-15B, 16A-16B, 17A-17B, 18A-18B, and 19.
Several sets of aqueous samples were prepared to study the dose response for the sweet taste receptors. One set of samples was prepared by adding the stevia blend 4 (1.3 wt % rebaudioside D and 6.7 wt % SG95) to water and adding 0.32 wt % potassium sorbate. Malic acid was added to the solution until the pH was 3.5. Eleven sets of aqueous samples were prepared by separately combining the same stevia 4 blend with either 2-methylbutanol or one of the compounds listed in Table 4. Another set of samples was prepared by adding sugar to water. Four additional sets of aqueous samples were prepared by separately combining each of the stevia blend 4, above, and sugar with either compounds 1 and 10 or compounds 2, 6, and 10 from Table 4. One final set of aqueous samples was prepared by combining the stevia blend 4, above, with compounds 1, 2, 3, and 10 from Table 4. Each set of samples were serially diluted and had concentrations ranging from about 0.001 nM to about 100 μM.
The aqueous samples were tested at varying concentrations for their ability to activate the sweet taste receptors in accordance with the procedures described in Example 8. Dose response curves were generated for the stevia 4 blend, sugar, and each compound-stevia 4 blend combination.

[2] = system: bitter taste receptors T2R; assay: Taste receptor internalization assay (Ring Assay), bitter; format: cell-based
Experimental: as §1, §2
(§3) The two control samples and Samples I-X were each serially diluted eight times at a ratio of 1:1 in water (1 part sample to 2 parts water) and dose response was determined by conducting a receptor internalization assay (“Ring Assay”) on an H716 cell line with an HCI platform using the methods disclosed in PCT Patent Application Publication No. WO 2014/183041. Receptor internalization was measured at 5 and 15 minutes. EC50 values and Maximum-Minimum (“Max-Min”) values were calculated using SPOTFIRE software. Sweet, aftertaste, glucagon, and bitterness scoring were calculated using analysis of variance (ANOVA). A median value was then calculated by dividing the Max-Min value by the EC50 value for all time points. […]

Glucagon = assay: Taste receptor internalization assay (Ring Assay), glucagon; format: cell-based; conditions: added to 8% stevia blend 3 base solution; compared to the sample with compound 2
Experimental: as §1, §2, §3

[3] = system: sweet taste receptors T1R2/T1R3, GLUT4, and Glucagon and bitter taste receptors T2R; assay: Taste receptor internalization assay, overall receptor response profile; format: cell-based; conditions: Sample X vs Sample IX; FIG. 10A
Experimental: as §1, §2, §3

[4] = compared with other steviol glycosides; cited from earlier work
[5] = compared with Rebaudioside A; cited from earlier work
[6] = added to 0.2% stevia blend 3 base solution, Example 11
[7] = added to 8 wt % stevia blend 3 base solution, Examples 10 and 11

- EC50 value, sweet receptor dose response [1]: smaller
- slope of the dose response curve [1]: smaller
Structure (SMILES): CCCC[C@@H]1OC(=O)C[C@H]1C (relative stereo) [Compound 10, Trans-4-Methyl-5-butyldihydro-2(3H)-furanone]

Structure (SMILES): CCC(C)CO (centres unmarked) [2-methylbutanol]
- bitterness receptor response [2, 6]: high sweet and bitterness
- bitterness receptor response [2, 7]: no bitterness
- sweet receptor response [1, 6]: high sweet
- sweetness (sweet receptor) response [1, 7]: low sweet; also recorded: significantly lower
- glucagon receptor response (Glucagon): significantly lower

Structure (SMILES): CCCCOC(C)=O [Compound 1, Butyl Acetate]
- EC50 value, sweet receptor dose response [1]: smaller
- slope of the dose response curve [1]: smaller

- EC50 value, sweet receptor dose response [1]: low
- taste modulator classification ([1]; for the stevia 4 blend, FIG. 57): sweet enhancer
- effect on the taste profile of stevia [3]: sweet/glucagon enhancer
Structure (SMILES): CC(C)CCO [Compound 2, 3-Methylbutanol]

Structure (SMILES): C=C1C[C@@]23CC[C@H]4[C@@](C)(CCC[C@@]4(C)C(=O)O[C@@H]4O[C@H](CO)[C@@H](O)[C@H](O)[C@H]4O[C@@H]4O[C@H](CO)[C@@H](O)[C@H](O)[C@H]4O)[C@@H]2CC[C@]1(O[C@@H]1O[C@H](CO)[C@@H](O)[C@H](O[C@@H]2O[C@H](CO)[C@@H](O)[C@H](O)[C@H]2O)[C@H]1O[C@@H]1O[C@H](CO)[C@@H](O)[C@H](O)[C@H]1O)C3 [Rebaudioside D]
- taste profile [4]: almost lacking the bitterness and lingering licorice aftertaste
- water solubility [5]: less water soluble than Rebaudioside A

Reference: patent US11751586B2, “Compositions and methods for improving taste of non-nutritive sweeteners” (PEPSICO, INC., priority 2016, dated 2023)
